Test [1] has as its system Mycobacterium tuberculosis variant bovis BCG. As to the kind of experiment: Antitubercular activity against dormant state Mycobacterium bovis BCG ATCC 35734 assessed as viable cells after 12 days by nitrate reductase assay. The test is classed as functional, organism-based. To be noted: ATCC 35734, 288 h.
Test [2] shares this test system. Briefly: Antitubercular activity against active state Mycobacterium bovis BCG ATCC 35734 assessed as viable cells after 8 days by nitrate reductase assay. Type of test: functional, organism-based. To be noted: ATCC 35734, 192 h.

Converted amounts (≈) assume the structure as drawn. Bounds are passed on as bounds.

Turning to `O=C(/C=C\c1cccc(O)c1)N1N=C(c2ccncc2)OC1c1c[nH]c2ccccc12` (stereo not drawn), in test [1], the IC50 was > 30 µg/mL and the MIC was > 30 µg/mL. For the same molecule, in test [2], the IC50 was > 30 µg/mL and the MIC was > 30 µg/mL.
With `O=C(/C=C\c1ccc(O)cc1)N1N=C(c2ccncc2)OC1c1c[nH]c2ccccc12` (stereo not drawn), the IC50 in test [1] came to 27.9 µg/mL (≈ 68 µM); in test [2] it was 28.8 µg/mL (≈ 70.2 µM). Besides, the MIC in test [1] and in test [2] was > 30 µg/mL in each case.
As to `COc1ccc(/C=C\C(=O)N2N=C(c3ccncc3)OC2c2c[nH]c3ccccc23)cc1` (stereo not drawn), in test [1], the IC50 was > 30 µg/mL and the MIC was > 30 µg/mL. In test [2], the IC50 is > 30 µg/mL and the MIC was > 30 µg/mL.
Consider `O=C(/C=C\c1ccccc1Cl)N1N=C(c2ccncc2)OC1c1c[nH]c2ccccc12` (stereo not drawn), for which the IC50 in test [1] and in test [2] was > 30 µg/mL throughout. Besides, the MIC in test [1] and in test [2] was > 30 µg/mL throughout.
As for `O=C(/C=C\c1ccc(F)cc1)N1N=C(c2ccncc2)OC1c1c[nH]c2ccccc12` (stereo not drawn), in test [1], the IC50 is > 30 µg/mL and the MIC is > 30 µg/mL. Besides, in test [2], the IC50 is > 30 µg/mL and the MIC was > 30 µg/mL.
With `O=C(/C=C\c1cccc([N+](=O)[O-])c1)N1N=C(c2ccncc2)OC1c1c[nH]c2ccccc12` (stereo not drawn), the IC50 in test [1] and in test [2] was > 30 µg/mL in each case. For the same molecule, the MIC in test [1] and in test [2] was > 30 µg/mL throughout.
Consider `O=C(/C=C\c1cccc(Br)c1)N1N=C(c2ccncc2)OC1c1c[nH]c2ccccc12` (stereo not drawn), for which, in test [1], the IC50 is 21.7 µg/mL (≈ 45.9 µM) and the MIC is > 30 µg/mL. For the same molecule, in test [2], the IC50 is > 30 µg/mL and the MIC was > 30 µg/mL.
`O=C(/C=C/c1c(Cl)cccc1Cl)N1N=C(c2ccncc2)OC1c1c[nH]c2ccccc12` (stereo not drawn): in test [1], the IC50 turned out to be 19.2 µg/mL (≈ 41.5 µM) and the MIC is > 30 µg/mL. In addition, in test [2], the IC50 is > 30 µg/mL and the MIC is > 30 µg/mL.
As for `Cc1ccc(/C=C\C(=O)N2N=C(c3ccncc3)OC2c2c[nH]c3ccccc23)cc1` (stereo not drawn), in test [1], the IC50 is > 30 µg/mL and the minimal inhibitory concentration (MIC) was > 30 µg/mL. In test [2], the IC50 is > 30 µg/mL and the MIC was > 30 µg/mL.
With `O=C(/C=C\c1ccc([N+](=O)[O-])cc1)N1N=C(c2ccncc2)OC1c1c[nH]c2ccccc12` (stereo not drawn), in test [1], the IC50 was 1.37 µg/mL (≈ 3.12 µM) and the MIC came out at 2.37 µg/mL (≈ 5.39 µM). In test [2], the 50% inhibitory concentration (IC50) was 1.42 µg/mL (≈ 3.23 µM) and the MIC worked out at 2.5 µg/mL (≈ 5.69 µM).
For `O=C(/C=C\c1cccc(Cl)c1Cl)N1N=C(c2ccncc2)OC1c1c[nH]c2ccccc12` (stereo not drawn), in that order: > 30 µg/mL, > 30 µg/mL, > 30 µg/mL and > 30 µg/mL.
For `O=C(/C=C\c1ccccc1O)N1N=C(c2ccncc2)OC1c1c[nH]c2ccccc12` (stereo not drawn), in that order: 0.68 µg/mL (≈ 1.66 µM), 1.19 µg/mL (≈ 2.9 µM), 0.46 µg/mL (≈ 1.12 µM) and 0.94 µg/mL (≈ 2.29 µM).
The matching figures for `O=C(/C=C\c1ccccc1)N1N=C(c2ccncc2)OC1c1c[nH]c2ccccc12` (stereo not drawn): 11.2 µg/mL (≈ 28.5 µM), > 30 µg/mL, 12.3 µg/mL (≈ 31.3 µM) and > 30 µg/mL.
`O=C(/C=C\c1ccc(Cl)cc1)N1N=C(c2ccncc2)OC1c1c[nH]c2ccccc12` (stereo not drawn): in test [1], the IC50 was > 30 µg/mL and the MIC is > 30 µg/mL. Besides, in test [2], the IC50 is > 30 µg/mL and the MIC is > 30 µg/mL.
As to `O=C(/C=C\c1ccccc1F)N1N=C(c2ccncc2)OC1c1c[nH]c2ccccc12` (stereo not drawn), in test [1], the IC50 was > 30 µg/mL and the MIC is > 30 µg/mL. In test [2], the IC50 was > 30 µg/mL and the MIC is > 30 µg/mL.
On to `O=C(/C=C\c1ccc(Br)cc1)N1N=C(c2ccncc2)OC1c1c[nH]c2ccccc12` (stereo not drawn), for which, in test [1], the IC50 is > 30 µg/mL and the MIC is > 30 µg/mL. In test [2], the IC50 is > 30 µg/mL and the MIC is > 30 µg/mL.
On to `O=C(/C=C\c1ccc(Cl)cc1Cl)N1N=C(c2ccncc2)OC1c1c[nH]c2ccccc12` (stereo not drawn), for which, in test [1], the IC50 was 1.5 µg/mL (≈ 3.24 µM) and the MIC was 4.97 µg/mL (≈ 10.7 µM). Besides, in test [2], the IC50 amounted to 2.93 µg/mL (≈ 6.32 µM) and the MIC worked out at 5.17 µg/mL (≈ 11.2 µM).
The matching figures for `O=C(/C=C\c1cccc(F)c1)N1N=C(c2ccncc2)OC1c1c[nH]c2ccccc12` (stereo not drawn): 20.4 µg/mL (≈ 49.5 µM), > 30 µg/mL, 19.5 µg/mL (≈ 47.4 µM) and > 30 µg/mL.
For `O=C(/C=C\c1cccc(Cl)c1)N1N=C(c2ccncc2)OC1c1c[nH]c2ccccc12` (stereo not drawn), in that order: > 30 µg/mL, > 30 µg/mL, > 30 µg/mL and > 30 µg/mL.
As to `O=C(/C=C\c1ccccc1[N+](=O)[O-])N1N=C(c2ccncc2)OC1c1c[nH]c2ccccc12` (stereo not drawn), in test [1], the IC50 came to 0.36 µg/mL (≈ 0.819 µM) and the MIC came to 0.85 µg/mL (≈ 1.93 µM). Further, in test [2], the IC50 was determined as 0.48 µg/mL (≈ 1.09 µM) and the MIC was found to be 1.03 µg/mL (≈ 2.34 µM).
As for `NNC(=O)c1ccncc1` [ISONIAZID], in test [1], the IC50 was 0.0017 µg/mL (≈ 0.0124 µM) and the MIC stood at 0.037 µg/mL (≈ 0.27 µM). Besides, in test [2], the IC50 worked out at 0.0012 µg/mL (≈ 0.00875 µM) and the minimal inhibitory concentration (MIC) came out at 0.033 µg/mL (≈ 0.241 µM).
For `CO[C@H]1/C=C/O[C@@]2(C)Oc3c(C)c(O)c4c(O)c(c(/C=N/N5CCN(C)CC5)c(O)c4c3C2=O)NC(=O)/C(C)=C\C=C\[C@H](C)[C@H](O)[C@@H](C)[C@@H](O)[C@@H](C)[C@H](OC(C)=O)[C@@H]1C` [RIFAMPIN], in that order: 0.0015 µg/mL (≈ 0.00182 µM), 0.017 µg/mL (≈ 0.0207 µM), 0.0012 µg/mL (≈ 0.00146 µM) and 0.015 µg/mL (≈ 0.0182 µM).

The record behind these values is ChEMBL document CHEMBL3779770, “Synthesis, biological evaluation and molecular docking study of some novel indole and pyridine based 1,3,4-oxadiazole derivatives as potential antitubercular agents” (Bioorg Med Chem Lett, 2016).
